Reference: ChEMBL document CHEMBL1201862, “PubChem BioAssay data set” (2004)
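Values below derive from 48-hour exposures of cells grown in 96-well plates, with endpoints linearly interpolated between the two concentrations bracketing the appropriate inhibition level. Abbreviation: GI50, concentration required for 50% inhibition of growth.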 The source made the active and inactive calls. Cut-off read from the data, not from the text of the source: active = GI50 up to about 1.1 µM and inactive = higher.

Key:
Assay in all cases: NCI tumour cell line growth inhibition, 48 h
OVCAR-3 = test system: OVCAR-3
A549 = test system: A549
KM-20L2 = test system: KM-20L2
DMS-273 = test system: DMS-273
HCC 2998 = test system: HCC 2998
CCRF-CEM = test system: CCRF-CEM
NCI-H460 = test system: NCI-H460
M14 = test system: M14
OVCAR-8 = test system: OVCAR-8
MOLT-4 = test system: MOLT-4
ACHN = test system: ACHN
UO-31 = test system: UO-31
A498 = test system: A498
EKVX = test system: EKVX
XF498 = test system: XF498
SNB-78 = test system: SNB-78
RXF 393 = test system: RXF 393
LXFL 529 = test system: LXFL 529
M19-MEL = test system: M19-MEL
HOP-62 = test system: HOP-62
OVCAR-5 = test system: OVCAR-5
HCT-15 = test system: HCT-15
SK-MEL-28 = test system: SK-MEL-28
KM12 = test system: KM12
TK-10 = test system: TK-10
786-0 = test system: 786-0
DLD-1 = test system: DLD-1
SK-MEL-2 = test system: SK-MEL-2
SNB-75 = test system: SNB-75
OVCAR-4 = test system: OVCAR-4
RPMI-8226 = test system: RPMI-8226
HL-60 = test system: HL-60
IGROV-1 = test system: IGROV-1
Malme-3M = test system: Malme-3M
SW-620 = test system: SW-620
NCI-H23 = test system: NCI-H23
UACC-257 = test system: UACC-257
K562 = test system: K562
UACC-62 = test system: UACC-62
SK-OV-3 = test system: SK-OV-3
HCT-116 = test system: HCT-116
SF-539 = test system: SF-539
NCI-H226 = test system: NCI-H226
SF-295 = test system: SF-295
HT-29 = test system: HT-29
U-251 = test system: U-251
CAKI-1 = test system: CAKI-1
SK-MEL-5 = test system: SK-MEL-5
SNB-19 = test system: SNB-19
NCI-H522 = test system: NCI-H522
SN12C = test system: SN12C
SF-268 = test system: SF-268

Measured: GI50

O=C1CC(c2c[nH]c3ccccc23)C(=O)N1c1ccccc1 (stereo not given)
inactive: OVCAR-3 > 100 µM | A549 > 100 µM | KM-20L2 > 100 µM | DMS-273 > 100 µM | HCC 2998 > 100 µM | CCRF-CEM > 100 µM | NCI-H460 > 100 µM | M14 > 100 µM | OVCAR-8 > 100 µM | MOLT-4 > 100 µM | ACHN > 100 µM | UO-31 83.6 µM | A498 > 100 µM | EKVX > 100 µM | XF498 > 100 µM | SNB-78 > 100 µM | RXF 393 > 100 µM | LXFL 529 > 100 µM | M19-MEL > 100 µM | HOP-62 > 100 µM | OVCAR-5 > 100 µM | SK-MEL-28 > 100 µM | KM12 > 100 µM | TK-10 > 100 µM | 786-0 > 100 µM | DLD-1 > 100 µM | SK-MEL-2 > 100 µM | SNB-75 > 100 µM | OVCAR-4 > 100 µM | RPMI-8226 > 100 µM | HL-60 > 100 µM | IGROV-1 > 100 µM | Malme-3M > 100 µM | SW-620 > 100 µM | NCI-H23 > 100 µM | UACC-257 > 100 µM | K562 > 100 µM | UACC-62 > 100 µM | SK-OV-3 > 100 µM | HCT-116 > 100 µM | SF-539 > 100 µM | NCI-H226 > 100 µM | SF-295 > 100 µM | HT-29 > 100 µM | U-251 > 100 µM | CAKI-1 > 100 µM | SK-MEL-5 > 100 µM
> 100 µM: HCT-15

C=CCN1C2Cc3cc(OC)c(OC)cc3C1Cc1cc(OC)c(OC)cc12
inactive: OVCAR-3 > 100 µM | A549 > 100 µM | KM-20L2 > 100 µM | HCC 2998 > 100 µM | CCRF-CEM > 100 µM | NCI-H460 > 100 µM | M14 > 100 µM | OVCAR-8 > 100 µM | MOLT-4 > 100 µM | ACHN > 100 µM | SNB-19 > 100 µM | UO-31 64 µM | A498 > 100 µM | EKVX > 100 µM | XF498 > 100 µM | SNB-78 > 100 µM | NCI-H522 > 100 µM | LXFL 529 > 100 µM | HOP-62 > 100 µM | SN12C > 100 µM | OVCAR-5 > 100 µM | SK-MEL-28 > 100 µM | KM12 > 100 µM | TK-10 > 100 µM | 786-0 > 100 µM | SF-268 > 100 µM | DLD-1 > 100 µM | SK-MEL-2 > 100 µM | SNB-75 > 100 µM | OVCAR-4 > 100 µM | RPMI-8226 > 100 µM | Malme-3M > 100 µM | SW-620 > 100 µM | NCI-H23 78.9 µM | UACC-257 > 100 µM | K562 > 100 µM | SF-295 53.8 µM | HT-29 69 µM | U-251 > 100 µM | CAKI-1 > 100 µM | SK-MEL-5 > 100 µM
> 100 µM: HCT-15
